From article PMC7190722, “Brain distribution of geissoschizine methyl ether in rats using mass spectrometry imaging analysis” (Scientific Reports, 2020)
Where “and” joins values, the source holds several entries; their conditions need not be identical. Equal entries are not always repeated.

Legend:
[1] = design: method as in PMID 23813572, PMID 30741064; details: plasma and brain, after oral YKS administration to rats; cited from earlier work
[2] = Brain distribution by MALDI-MSI analysis after intravenous GM injection; assay type: in vivo, rat; details: 0.25 h after 5 mg/kg GM i.v., sagittal sections
Protocol: GM (5 mg/kg) or vehicle (70% DMSO; 0.6 mL/kg) was injected into the tail vein of rats fasted for approximately 16 h. […] Blood samples were centrifuged at 1,700 × g and 4 °C for 15 min to obtain the plasma. The brain of each animal was immediately removed and weighed after blood collection and frozen with liquid nitrogen.
The frozen brains were used for making serial sagittal thin sliced sections (thickness 25 μm, coordinate: approximately 3.4 mm lateral from the bregma) using a Leica CM3050S cryostat (Leica Microsystems, Wetzlar, Germany). Some of the serial sections mounted on conventional glass slides were used for H&E staining to confirm the location of the brain region in the slice. […]
The MALDI-MSI analysis was performed on brain slice specimens sprayed with a matrix solution (40 mg/mL 2,5-dihydroxybenzoic acid) dissolved in 50% methanol using a TM-sprayer (HTX Technologies, Chapel Hill, NC, USA). […] The targeted protonated molecule GM ([M + H]^+: m/z 367.2) was detected in positive ion mode under a laser power setting of 70%, 500 laser shots, and the continuous accumulation of selected ions mode set to ON at m/z 360 ± 50. […] GM intensity detected by the MALDI-MS analysis was visualized using FlexImaging software (Bruker Daltonics).

[3] = Brain distribution by DESI-MSI analysis after intravenous GM injection; assay type: in vivo, rat; details: for concentration at 0.25 h: rat, intravenous, 5 mg/kg
Protocol: GM (5 mg/kg) or vehicle (70% DMSO; 0.6 mL/kg) was injected into the tail vein of rats fasted for approximately 16 h. […] Blood samples were centrifuged at 1,700 × g and 4 °C for 15 min to obtain the plasma. The brain of each animal was immediately removed and weighed after blood collection and frozen with liquid nitrogen. The frozen brains were used for making serial sagittal thin sliced sections (thickness 25 μm, coordinate: approximately 3.4 mm lateral from the bregma) using a […][…] cryostat (Leica Microsystems, […], Germany). Some of the serial sections mounted on conventional glass slides were used for H&E staining to confirm the location of the brain region in the slice. In MALDI-MSI analysis, some sections were mounted on indium tin oxide-coated slides ([…]., Osaka, Japan) based on previous reports[35],[36] to obtain higher sensitivity. In […] analysis, some sections were mounted on conventional glass slides. These tissue sections mounted on the slides were dried in a desiccator at room temperature for 10 min for MALDI-MSI analysis or 1 h for […] analysis. In the […] analysis, the MS/MS analysis was further performed to identify the signals of GM or its hydroxylated metabolite. The MS and MS/MS analyses for […] were performed using a Xevo G2-XS Q-Tof system (Waters, Milford, MA, USA) with an Omni Spray Ion Source 2-D (Prosolia, Indianapolis, IN, USA). In both analyses, methanol/water (98:2)solution was flowed into a capillary at a 2 μL/min flow rate. The nebulizing gas pressure was set to 0.4 MPa, the capillary voltage to 5 kV, the source temperature to 100 °C, the sampling cone to 30 V, and the scan time to 0.986 sec. In the MS analysis, the collision energy was set to 4 eV, and mass spectra were acquired in target enhancement mode, which was set to m/z 367.2. In the MS/MS analysis, the collision energy was set to 20 eV, and mass spectra were acquired in target enhancement mode, which was set to m/z 144.2. Mass resolution and spatial resolution were >20,000 and 200 μm in the MS and MS/MS analyses. The protonated ions of GM ([M + H]^+: m/z 367.2) and HM ([M + H]^+: m/z 383.2) in MS and the specific fragment ions of GM (m/z 144.2) and HM (m/z 160.2) in MS/MS were detected in positive ion mode. The intensities of GM and HM detected in the DESI-MS analysis were visualized using high-definition imaging (HDI) software (Waters, Milford, MA, USA). Normal intact brains were homogenized without adding a solvent using a T-10 basic Ultra-Turrax homogenizer (IKA, Staufen, Germany) to prepare a tissue-based calibration curve for quantifying GM. For brain homogenates, various concentrations of standard GM solution (final concentration: 6.25, 12.5, and 25.0 μg/g brain) or vehicle (methanol) as a control were added and rapidly frozen. Frozen sections (thickness 25 μm) of the homogenates spiked with standard GM were made using a […][…] cryostat (Leica Microsystems). Regional intensities of GM (m/z 367.2) and a standard endogenous molecule (m/z 366.95) in brain tissue slices and homogenate slices were evaluated by the region of interest analysis using HDI software (Waters). The GM signal intensity was expressed as the average of the relative intensity ratio to the standard endogenous molecule per […] contained in the region of interest. The regional brain concentration of GM was calculated using the tissue-based calibration curve (Fig. 3D-2).

[4] = design: method as in PMID 21442303; details: cultured cells; cited from earlier work
[5] = Plasma concentrations of GM and HM-1/2 by LC-MS/MS after intravenous GM injection; assay type: in vivo, rat
Protocol: GM (5 mg/kg) or vehicle (70% DMSO; 0.6 mL/kg) was injected into the tail vein of rats fasted for approximately 16 h. […] Blood samples were centrifuged at 1,700 × g and 4 °C for 15 min to obtain the plasma. The brain of each animal was immediately removed and weighed after blood collection and frozen with liquid nitrogen. On the day of analysis, frozen plasma from GM-treated rats was thawed at room temperature, and 25 µL of the plasma was mixed with equal volumes of methanol and an IS vincamine (1 ng/mL) and 150 μL of ethyl acetate. To prepare the calibration curve, blank plasma and various concentrations of working solution (final plasma concentration: 0.08–2 µg/mL) were used instead of methanol and GM-treated plasma. The mixture was centrifuged at 7,000 × g and 4 °C for 5 min. The supernatant was dried under a stream of nitrogen gas. The dried residue was dissolved in 60 μL of the initial mobile phase of LC, and then, a 5-μL aliquot was injected into the LC-MS/MS system composed of an Agilent 1290 LC (Agilent Technologies, Santa Clara, CA, USA) and a TripleQuad6500 MS/MS (SCIEX, Framingham, MA, USA) for measuring GM and its hydroxylated forms. The analytical conditions for LC-MS/MS were set according to previously reported methods with minor modifications[10],[15]. The protonated ions ([M + H]^+) of GM (m/z 367.0), HM-1/2 isomers (m/z 383.3), and vincamine (m/z 355.3) in Q1 (the first MS) or their specific fragment ions (GM: m/z 144.1, HM-1/2 isomers: m/z 160.2, vincamine: m/z 337.1) in Q3 (the second MS) were selected and detected by SRM using positive ion mode. Although a qualifier ion was not monitored in their analysis, the specificities of GM, HM-1/2 and vincamine in rat plasma were already confirmed by previous studies[10],[14]. The calibration curve for quantification of plasma GM concentrations was prepared using Analyst software (version 1.6.2, AB SCIEX). The plasma concentrations of HM-1/2 were expressed as relative peak area ratios of vincamine (IS) because there are currently no standard products for measuring these compounds.

normal rat brain slices = test system: normal rat brain slices; design: method as in PMID 25456433, PMID 28377723; details: [^3H]GM directly exposed to normal rat brain slices; cited from earlier work
[6] = Amygdala, 0.25 h, individual animals
[7] = Cerebellum, 0.25 h, individual animals
[8] = Fourth ventricle, 0.25 h, individual animals
[9] = Frontal lobe, 0.25 h, individual animals
[10] = Hippocampus, 0.25 h, individual animals
[11] = Lateral ventricle, 0.25 h, individual animals
[12] = Occipital lobe, 0.25 h, individual animals
[13] = Striatum, 0.25 h, individual animals
[14] = Thalamus, 0.25 h, individual animals

For CC=C1CN2CCc3c([nH]c4ccccc34)C2CC1C(=COC)C(=O)OC (stereo not shown) [GM, Geissoschizine methyl ether], the tmax [1] is listed as 0.5 h, the “GM ion signal in brain, MALDI-MSI image” value [2] is listed as “a diffuse GM ion signal was observed throughout the brain parenchyma” and the “GM ion signal in brain, DESI-MSI image” value ([3]; 0.25 h after 5 mg/kg GM i.v., sagittal sections) is listed as “a diffuse GM ion signal was observed throughout the brain parenchyma”. For the same molecule, the “Calculated GM concentration” value [3, 6] was 1.0 µg/g and 2.2 µg/g and 1.2 µg/g, the “Ion intensity of GM per pixel in ROI” value [3, 6] was 2.4 ×10^4 and 3.7 ×10^4 and 9.7 ×10^4 and the “Ratio of GM/endogenous standard molecule” value [3, 6] was 0.8 and 1.8 and 1.0. For the same molecule, the “Calculated GM concentration” value [3, 7] was 0.8 µg/g and 2.0 µg/g and 1.1 µg/g, the “Ion intensity of GM per pixel in ROI” value [3, 7] was 4.2 ×10^4 and 2.4 ×10^4 and 8.7 ×10^4 and the “Ratio of GM/endogenous standard molecule” value [3, 7] was 0.7 and 1.7 and 0.9. For the same molecule, the “GM intensity in the parenchyma” value ([3]; DESI-MSI, 1 and 4 h after 5 mg/kg GM i.v.) was “almost disappeared”, the “intracerebroventricular GM intensity” value ([3]; DESI-MSI, 0.25 h, also detected at 1 and 4 h) was “higher than the intensity in other parenchymal areas” and the “Calculated GM concentration” value [3, 8] was 2.3 µg/g and 2.0 µg/g. For the same molecule, the “Ion intensity of GM per pixel in ROI” value [3, 8] was 4.0 ×10^4 and 3.9 ×10^4 and 26.5 ×10^4, the “Ratio of GM/endogenous standard molecule” value [3, 8] was 1.0 and 1.9 and 1.7 and the “Calculated GM concentration” value [3, 9] was 1.0 µg/g and 2.6 µg/g and 1.2 µg/g. For the same molecule, the “Ion intensity of GM per pixel in ROI” value [3, 9] was 2.9 ×10^4 and 5.4 ×10^4 and 9.1 ×10^4, the “Ratio of GM/endogenous standard molecule” value [3, 9] was 0.8 and 2.2 and 1.0 and the “Calculated GM concentration” value [3, 10] was 2.3 µg/g and 1.1 µg/g and 0.8 µg/g. For the same molecule, the “Ion intensity of GM per pixel in ROI” value [3, 10] was 4.7 ×10^4 and 10 ×10^4 and 2.0 ×10^4, the “Ratio of GM/endogenous standard molecule” value [3, 10] was 1.9 and 0.9 and 0.7 and the “Calculated GM concentration” value [3, 11] was 1.4 µg/g and 4.5 µg/g and 2.9 µg/g. For the same molecule, the “Ion intensity of GM per pixel in ROI” value [3, 11] was 3.0 ×10^4 and 8.3 ×10^4 and 21.2 ×10^4, the “Ratio of GM/endogenous standard molecule” value [3, 11] was 1.2 and 3.8 and 2.4 and the “Calculated GM concentration” value [3, 12] was 1.1 µg/g and 2.7 µg/g and 1.3 µg/g. The “Ion intensity of GM per pixel in ROI” value [3, 12] was 2.9 ×10^4 and 4.8 ×10^4 and 10.5 ×10^4, the “Ratio of GM/endogenous standard molecule” value [3, 12] was 0.9 and 2.3 and 1.1 and the “Calculated GM concentration” value [3, 13] was 0.8 µg/g and 2.6 µg/g and 1.1 µg/g. For the same molecule, the “Ion intensity of GM per pixel in ROI” value [3, 13] was 1.9 ×10^4 and 3.9 ×10^4 and 7.2 ×10^4, the “Ratio of GM/endogenous standard molecule” value [3, 13] was 0.7 and 2.2 and 0.9 and the “Calculated GM concentration” value [3, 14] was 0.7 µg/g and 2.4 µg/g and 1.1 µg/g. The “Ion intensity of GM per pixel in ROI” value [3, 14] was 1.7 ×10^4 and 4.5 ×10^4 and 8.8 ×10^4, the “Ratio of GM/endogenous standard molecule” value [3, 14] was 0.6 and 2.0 and 0.9 and the concentration at 0.25 h ([3]; brain (fourth ventricle), Fourth ventricle, 0.25 h, individual animals, read-out: Calculated GM concentration) was 1200 ng/g. The concentration at 0.25 h ([3]; 0.25 h after 5 mg/kg GM i.v., cerebral cortex, hippocampus, striatum, amygdala, thalamus, cerebellum, lateral ventricle, read-out: regional brain GM concentration range) was 1300 to 2900 ng/g, the BBB permeability [4] was “comparatively high” and the “time course of plasma GM concentration” value ([5]; 0.25-4 h after 5 mg/kg GM i.v., rat) was “rapidly decreased in a time-dependent manner over 4 h”. For the same molecule, the “plasma concentration relative to maximum concentration after oral YKS” value ([5]; 0.25 h after 5 mg/kg GM i.v. vs maximum concentration 1 h after oral 1 g/kg YKS) was “approximately 500 times”, the distribution volume ([5]; one-compartment analysis, 5 mg/kg GM i.v., rat) was 4.4 L/kg and the concentration at 0.25 h ([5]; plasma, iv, 0.25 h postinjection, 5 mg/kg GM i.v., rat) was 1.07 µg/mL. It also gave a half-life ([5]; plasma, iv, one-compartment analysis, 5 mg/kg GM i.v., rat, read-out: apparent elimination half-life (converted)) of 1.8 h, a k el ([5]; plasma, iv, one-compartment analysis, 5 mg/kg GM i.v., rat, read-out: elimination rate constant (converted)) of 0.000111 s⁻¹ and a clearance ([5]; plasma, iv, one-compartment analysis, 5 mg/kg GM i.v., rat, read-out: total clearance (converted)) of 1.7 L/h/kg. For the same molecule, the “binding to brain slices” value (normal rat brain slices) was “specifically bound to various regions appearing on the surface of brain slices”.
